Ends that are not written are not given here.
Legend:
[1] = system: human umbilical vein endothelial cells; test: HUVEC migration, Boyden chamber assay; type: cell-based; design: key to Migration: − = no activity; +/− = low activity; + = active; ++ = high activity; settings: for Migration: Table 2 score
Description: Cells—HUVECs were isolated and used at passages 2-5. Grant et al., J. Cell Sci. 108:3685-3694 (1995). The cells were cultured in RPMI 1640 (Invitrogen, Carlsbad, Calif.) supplemented with 20% bovine calf serum (Hyclone Laboratories, Logan, Utah), 200 μg/ml of endothelial cell growth supplement (ECGS) (Collaborative Biomedical Products, Bedford, Mass.), 0.8 U/ml heparin sodium (Fisher Scientific, Pittsburgh, Pa.), penicillin/streptomycin (Invitrogen, Carlsbad, Calif.), 10 μg/ml gentamycin (Invitrogen, Carlsbad, Calif.), and 1% fungizone (Invitrogen, Carlsbad, Calif.).
Boyden chamber assay—HUVEC migration assays were conducted in a 48-well micro-chemotaxis chamber (Neuro Probe Inc., Cabin John, Md.) as previously described in Salcedo et al., J. Immunol. 166:7571-7578 (2001). Briefly, PVP-free polycarbonate membranes with 8 μm pores were coated with 50 μg/ml of rat tail collagen (BD Biosciences, Bedford, Mass.) in RPMI 1640 that contained 25 mM HEPES (Invitrogen, Carlsbad, Calif.) at 4° C. overnight. The membranes were dried at least 1 hr prior to use. HUVECs were serum-starved for 2 hr, harvested using Versene (Invitrogen, Carlsbad, Calif.), and resuspended in binding medium that contained RPMI 1640 with 1% BSA and 25 mM HEPES. The lower wells of the chamber were loaded with 1, 10, 100, and 1000 ng/ml of thymosin β4 or peptide fragments that were diluted in binding medium. Basic fibroblast growth factor (bFGF) (200 ng/ml) was used as a positive control. Cells were added to the upper portion of the chamber at a concentration of 50,000 cells per well. The chambers were incubated at 37° C. for 4 hr. The filters were fixed and stained using Diff-Quik (VWR, Bridgeport, N.J.). The cells that successfully migrated through the pores of the membrane were manually quantitated using a CK-2 Olympus microscope at 10× magnification. Each condition was assayed in triplicate, and the assay was repeated twice.

chick aortic arches = test: Chick aortic arch vessel sprouting assay; type: cell-based; design: key to Sprouting: − = no activity; +/− = low activity; + = active; ++ = high activity; settings: for Sprouting: Table 2 score; for activity in the assays (endothelial cell migration and vessel sprouting): statement covers both migration and sprouting assays
Description: Chick aortic arch assay—The aortic arch of 13-day-old chick embryos was removed and placed in RPMI 1640. After removal of surrounding connective tissue, transverse sections of the arch were made (1 mm). The resulting aortic rings were carefully attached to the bottom of a 48-well plate, one ring per well, with 20-30 μl of Matrigel (Collaborative Biomedical Products). The rings were placed so that the lumen of each ring could be seen. More Matrigel was added onto the top of the rings to seal them in place. A 100 μl volume of human endothelial—SFM basal growth medium (Invitrogen) containing 1% penicillin streptomycin was added to each well. Thymosin β4, peptide fragments, and exogenous actin (Sigma Chemical Co.) were added to wells in serum-free medium, bringing the final volume of each well to 400 μl. ECGS (200 μg/ml) was used as a positive control. The plates were incubated for 24 hr at 37° C. Rings were fixed and stained with Diff-Quik solution II. Sprouting was scored in a blind assessment by an observer using 10× magnification on an Olympus microscope. Six wells were used for each condition tested, and each assay was done three times.

hair follicles = test: Topical thymosin β4 on normal (unwounded) shaved rat skin; type: in vivo; settings: 30 days after treatment
Description: In these experiments, 8 week old female Sprague Dawley rats were utilized. Thymosin β4 was applied on the shaved backs of the animals at a concentration of 0.5 mg/ml in hydrogel three times per week (Monday, Wednesday and Friday). The hair of the animals was observed over 30 days. Some of the animals were sacrificed on day 7 after the initiation of treatment, while others were sacrificed on day 30 after initiation of treatment. Tissue sections were prepared using methods known in the art, as indicated above in Example 1. The tissue section samples were all read and compared on a blind basis by an observer trained in dermatology.
One study used shaved rats where thymosin β4 was applied topically on one side of the shaved area and on the opposing lateral side a control vehicle was applied. […] The number of anagen follicles was approximately two-fold greater than in rats treated with the control vehicle alone (see FIG. 7D). […] The increased number of hairs in the anagen phase was retained with continued tri-weekly treatment over 30 days. However, within 14 days of ceasing treatment, the number of active hair follicles decreased to control levels.

[2] = system: male patients between 18 and 41 years of age; post-menopausal women; settings: cited from earlier work
[3] = 1 mg/day oral for 2 years, male patients 18 to 41 years

| Compound | Migration [1] | Sprouting (chick aortic arches) | activity in the assays (endothelial cell migration and vessel sprouting) (chick aortic arches) | other results |
| --- | --- | --- | --- | --- |
| amino acid residues 17-22 of SEQ ID NO: 1: six amino acid residues 17-22 of thymosin β4, shorter actin binding sequence (LKKTET; listed as Bos taurus) |  |  |  | endothelial cell migration, in words [1]: promotes endothelial cell migration |
| Tβ10: naturally occurring β-thymosin with conserved actin-binding domain (ADKPDMGEIASFDKAKLKKTETQEKNTLPTKETIEQEKRSEIS; UniProt P63313 2-44, looked up) | ++ | + | active |  |
| Tβ4^1-8: proteolytic fragment of naturally occurring Tβ4, acSDKP DM (Ac-SDKPDM; UniProt P62328 2-7, looked up, fragment) |  | − | inactive |  |
| CC[C@H](C)[C@H](NC(=O)[C@H](CCC(=O)O)NC(=O)[C@H](C)NC(=O)[C@H](CCSC)NC(=O)[C@H](CC(=O)O)NC(=O)[C@@H]1CCCN1C(=O)[C@H](CCCCN)NC(=O)[C@H](CC(=O)O)NC(=O)[C@H](CO)NC(C)=O)C(=O)N[C@@H](CCC(=O)O)C(=O)N[C@@H](CCCCN)C(=O)N[C@@H](Cc1ccccc1)C(=O)N[C@@H](CC(=O)O)C(=O)N[C@@H](CCCCN)C(=O)N[C@@H](CO)C(=O)N[C@@H](CCCCN)C(=O)N[C@@H](CC(C)C)C(=O)N[C@@H](CCCCN)C(=O)N[C@@H](CCCCN)C(=O)N[C@H](C(=O)N[C@@H](CCC(=O)O)C(=O)N[C@H](C(=O)N[C@@H](CCC(N)=O)C(=O)N[C@@H](CCC(=O)O)C(=O)N[C@@H](CCCCN)C(=O)N[C@@H](CC(N)=O)C(=O)N1CCC[C@H]1C(=O)N[C@@H](CC(C)C)C(=O)N1CCC[C@H]1C(=O)N[C@@H](CO)C(=O)N[C@@H](CCCCN)C(=O)N[C@@H](CCC(=O)O)C(=O)N[C@H](C(=O)N[C@H](C(=O)N[C@@H](CCC(=O)O)C(=O)N[C@@H](CCC(N)=O)C(=O)N[C@@H](CCC(=O)O)C(=O)N[C@@H](CCCCN)C(=O)N[C@@H](CCC(N)=O)C(=O)N[C@@H](C)C(=O)NCC(=O)N[C@@H](CCC(=O)O)C(=O)N[C@@H](CO)C(=O)O)[C@@H](C)CC)[C@@H](C)O)[C@@H](C)O)[C@@H](C)O [Tβ4, Thymosin β4] |  |  |  | change in the epidermis or in the thickness of the dermis (hair follicles): little change; inflammatory cells (hair follicles): some increase |
| Tβ4^Ala: naturally occurring β-thymosin, acADKP variant of Tβ4 (ADKPDMAEIEKFDKSKLKKTETQEKNPLPSKETIEQEKQAGES; Thymosin beta-4 N-terminal acetyl; UniProt P62328 2-44, looked up, variant S1A) |  | + | active |  |
| Tβ4^18-19: synthetic, amino acid residues 13-19 of SEQ ID NO: 1 (DKSKLKK; listed as Bos taurus) |  | − | inactive |  |
| thymosin β4-sulfoxide (SDKPDMAEIEKFDKSKLKKTETQEKNPLPSKETIEQEKQAGES; Thymosin beta-4 methionine sulfoxide; UniProt P62328 2-44, looked up) [Tβ4^(O), sulfoxide form prepared from the naturally occurring peptide] | ++ | ++ | active |  |
| Tβ4^7-43: proteolytic fragment of naturally occurring Tβ4, residues 7-43 (AEIEKFDKSKLKKTETQEKNPLPSKETIEQEKQAGES; Thymosin beta-4; UniProt P62328 8-44, looked up, fragment) | ++ | ++ | generally highly active |  |
| Tβ15^18-28: synthetic peptide of thymosin β15 amino acids 13-23, DK SKLKK TNTE |  | + |  | vessel sprouting, in words (chick aortic arches): active |
| Tβ4^1-16: synthetic, the first 15 amino acid residues of SEQ ID NO: 1 (SDKPDMAEIEKFDKS; ends and bridges not checked; listed as Bos taurus) | − | +/− |  | vessel sprouting, in words (chick aortic arches): very weak activity |
| Tβ4^13-43: proteolytic fragment of naturally occurring Tβ4, residues 13-43 (DKSKLKKTETQEKNPLPSKETIEQEKQAGES; Thymosin beta-4; UniProt P62328 14-44, looked up, fragment) | + | +/− | generally highly active |  |
| Tβ4^1-28: proteolytic fragment of naturally occurring Tβ4, residues 1 to KN (SDKPDMAEIEKFDKSKLKKTETQEKN; not fully specified; Thymosin beta-4; UniProt P62328 2-27, looked up, fragment) |  | +/− | generally highly active |  |
| Tβ4^20-48: synthetic, amino acid residues 20-43 of SEQ ID NO: 1 (TETQEKNPLPSKETIEQEKQAGES; listed as Bos taurus) | ++ | + | generally highly active |  |
| Tβ4^27-48: proteolytic fragment PLP SKETI EQEKQ AGES (PLPSKETIEQEKQAGES; Thymosin beta-4; UniProt P62328 28-44, looked up, fragment) | + | +/− |  |  |
| Tβ4^10-28: synthetic, amino acid residues 10-28 of SEQ ID NO: 1 (EKFDKSKLKKTETQEKNPL; listed as Bos taurus) | + | ++ | generally highly active |  |
| CC(C)(C)NC(=O)[C@H]1CC[C@H]2[C@@H]3CC[C@H]4NC(=O)C=C[C@]4(C)[C@H]3CC[C@]12C [finasteride] |  |  |  | cases in which further hair loss was prevented [2, 3]: 83%; cases with visible hair growth [2, 3]: 66%; efficacy in post-menopausal women ([2]; 1 mg/day over 1 year): ineffective; side effects ([2]; human, in vivo): lack of libido, lack of potency, and mild reduction in semen |

— patent publication US7563766B2, “Methods and compositions for the promotion of a hair growth utilizing actin binding peptides” (The United States of America as represented by the …, priority 2002, dated 2009)
